Assay results reported in patent publication US20220348543A1, “SALTS OF OMECAMTIV MECARBIL AND SOLID FORMS THEREOF” (SYNTHON B.V., priority 2019, published 2022).
Counter-ions that a name gives are not always drawn. Like-named read-outs stand apart in the source and are kept apart here.

How the values were obtained:
[1] = Solubility of Omecamtiv mecarbil salts in water solution (aqueous buffer) at different pH; assay type: physicochemical; conditions: USP / Ph. Eur. descriptive terms, read-out: Category of solubility (Descriptive Term)
Procedure: The solubility of prepared salts was tested in water solution at different pH (1.2, 4.5 and 6.8) and compared to Omecamtiv mecarbil dihydrochloride monohydrate salt prepared according to a procedure disclosed in WO2006009726 application.
It can be concluded that solubility of all prepared salt is better that the solubility of dihydrochloride monohydrate salt.

[2] = Stability at 25° C. of the solid isolated from salt crystallisation; assay type: physicochemical; conditions: crystallised from 2-butanone
Procedure: The preparation of Omecamtiv mecarbil methane sulfonic acid salt was tested also in following solvent: methanol, ethanol, isopropanol, 1-butanol, acetone and tetrahydrofurane. Solid obtainable from these solvents was not stable and it melted at a temperature 25° C. […] The solid Form M can be therefore used for purification of Omecamtiv mecarbil. The salt can be transformed into Omecamtiv mecarbil by contacting with a base (for example sodium hydrogen carbonate or potassium hydrogen carbonate or sodium carbonate or potassium carbonate or sodium hydroxide or potassium hydroxide) in a suitable solvent (for example an alcohol or acetone).
250 mg of Omecamtiv mecarbil was dissolved in a solvent (in Table below) at a temperature (in Table below). 40 μl methane sulfonic acid (1 eq. w.r.t. Omecamtiv mecarbil) was added. The mixture was cooled to 25° C. and stirred for 16 hours. If no solid appeared, mixture was then stirred at −15° C. Solid mass was filtered off and dried. The ratio between Omecamtiv mecarbil and the salt was determined by NMR as 1:2 (i.e. dimethane sulfonate salt).

solubility ([1]; aqueous buffer pH 4.5) | solubility ([1]; aqueous buffer pH 6.8) | solubility ([1]; simulated gastric fluid, aqueous buffer pH 1.2) | stability of the crystalline solid [2] | Compound
≥ 1000 mg/mL | ≥ 1000 mg/mL | ≥ 1000 mg/mL | – | COC(=O)N1CCN(Cc2cccc(NC(=O)Nc3ccc(C)nc3)c2F)CC1 [Omecamtiv mecarbil p-toluene sulfonic acid salt]
– | – | – | form M, stable at 25° C., | COC(=O)N1CCN(Cc2cccc(NC(=O)Nc3ccc(C)nc3)c2F)CC1 [Salt with methane sulfonic acid, Form M, Omecamtiv mecarbil methane sulfonic acid salt]
